In US20260022142A1, “MACROCYCLIC IMMUNOMODULATORS” (Bristol-Myers Squibb Company, priority 2022, published 2026) one finds IC50 data, which are given here for twelve compounds.

Molecules are shown by their SMILES. Numbered stars: 1 amine (or outer) side, 2 acyl side, 3 side chain; on linkers, the order of the positions; unused ones are H or OH. Bridge positions count the residues as written; N and C are the ends. Square brackets hold non-standard residues; d marks the D form. Peptide text beside a SMILES is read from it. * marks the point of attachment. ξ: configuration not given here. Phe(3-CF3) = N[C@@H](Cc1cccc(C(F)(F)F)c1)C(=O)O; Phe(4-COOH) = N[C@@H](Cc1ccc(C(=O)O)cc1)C(=O)O; X9 = O=C([C@H](Cc1cc(F)c(F)cc1F)N[*:1])[*:2]; Bip = N[C@@H](Cc1ccc(-c2ccccc2)cc1)C(=O)O; NH(CH2)14COOH = O=C(O)CCCCCCCCCCCCCCN*; Phe(3-Me) = Cc1cccc(C[C@H](N)C(=O)O)c1; βAsp = O=C(O)[C@H](CC(=O)[*:2])N[*:1]; ξBip = NC(Cc1ccc(-c2ccccc2)cc1)C(=O)O; NH(CH2)12COOH = O=C(O)CCCCCCCCCCCCN*; Val(3-OH) = CC(C)(O)[C@H](N)C(=O)O; 4Pal = N[C@@H](Cc1ccncc1)C(=O)O; Cha = N[C@@H](CC1CCCCC1)C(=O)O; Cit = NC(=O)NCCC[C@H](N)C(=O)O; Carboxymethyl = O=C(O)C*; Orn = NCCC[C@H](N)C(=O)O; Aun = NCCCCCCCCCCC(=O)O; Dab = NCC[C@H](N)C(=O)O; Dap = NC[C@H](N)C(=O)O; ξD = NC(CC(=O)O)C(=O)O; AEEA = NCCOCCOCC(=O)O

T1 sequence (Q15116 25-288): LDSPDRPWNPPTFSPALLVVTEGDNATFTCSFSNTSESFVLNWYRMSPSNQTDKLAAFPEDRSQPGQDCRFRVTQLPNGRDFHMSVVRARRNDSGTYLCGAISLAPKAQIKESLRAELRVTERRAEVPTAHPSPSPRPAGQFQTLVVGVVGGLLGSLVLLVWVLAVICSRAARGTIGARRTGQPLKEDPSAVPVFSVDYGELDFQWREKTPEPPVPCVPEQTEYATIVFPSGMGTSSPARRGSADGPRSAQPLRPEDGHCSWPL

The assay addresses T1, PD-1/PD-L1 interaction (PE-labeled human PD-L1-Ig binding to Jurkat cell line over-expressing human PD-1) (Homo sapiens, UniProt Q15116).
T1 construct: expressed in transfected cells; host or cells: Jurkat
The assay can be described thus: Jurkat-PD-1 Cell Binding High-Content Screening Assay (CBA). Particulars: Jurkat cell line over-expressing human PD-1; PE-labeled PD-L1-Ig 20 nM final; read-out: Jurkat hPD1-PDL1 IC50. The assay is classed as cell-based. The essentials:
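Binding of fluorescent PD-L1-Ig (20 nM final) to Jurkat-PD-1 cells was measured by automated imaging after 1 h, following a 2 h compound pre-treatment at 37° C.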
One may read the IC50 as the concentration that inhibits the measured activity by half. For `Cc1cccc(C[C@@H]2NC(=O)[C@H](CC(=O)O)NC(=O)[C@H](Cc3ccc(OCC(=O)O)cc3)NC(=O)[C@H](CCCNC(=N)N)NC(=O)CSC[C@@H](C(=O)N[C@@H](CCN)C(=O)NCCCCCCCCCCC(=O)O)NC(=O)[C@H](CO)NC(=O)[C@H](C(C)C)NC(=O)[C@H](CC3CCCCC3)NC(=O)[C@H](CCN)NC(=O)[C@@H](CC(C)C)NC(=O)[C@H](CCCN)NC(=O)[C@H](Cc3ccc(OCC(=O)O)cc3)NC(=O)[C@H](Cc3ccc(-c4ccccc4)cc3)NC(=O)[C@H](Cc3ccc(OCC(=O)O)cc3)NC2=O)c1` [Compound 2083] ({CH2CO}-RY(Carboxymethyl)D[Phe(3-Me)]Y(Carboxymethyl)[Bip]Y(Carboxymethyl)[Orn][dL][Dab][Cha]VSC[Dab][Aun]-OH; thioether N-14), the IC50 was found to be 8.3 nM.
As for `Cc1cccc(C[C@@H]2NC(=O)[C@H](CC(=O)O)NC(=O)[C@H](Cc3ccc(OCC(=O)O)cc3)NC(=O)[C@H](Cc3ccccc3)NC(=O)CSC[C@@H](C(=O)N[C@@H](CCN)C(=O)NCCCCCCCCCCC(=O)O)NC(=O)[C@H]([C@@H](C)O)NC(=O)[C@H](C(C)C)NC(=O)[C@H](CC3CCCCC3)NC(=O)[C@H](CCN)NC(=O)[C@@H](CC(C)C)NC(=O)[C@H](CCCN)NC(=O)[C@H](CCCNC(N)=O)NC(=O)[C@H](Cc3ccc(-c4ccccc4)cc3)NC(=O)[C@H](C(C)C)NC2=O)c1` [Compound 2825] ({CH2CO}-FY(Carboxymethyl)D[Phe(3-Me)]V[Bip][Cit][Orn][dL][Dab][Cha]VTC[Dab][Aun]-OH; thioether N-14), the IC50 turned out to be 201 nM.
On to `Cc1cccc(C[C@@H]2NC(=O)[C@H](CC(=O)O)NC(=O)[C@H](Cc3ccc(C(=O)O)cc3)NC(=O)[C@H](C(C)C)NC(=O)CSC[C@@H](C(=O)N[C@@H](CCN)C(=O)NCCOCCOCC(=O)NCCCCCCCCCCC(=O)O)NC(=O)[C@H](CO)NC(=O)[C@H](C(C)(C)O)NC(=O)[C@H](CC3CCCCC3)NC(=O)[C@H](CCN)NC(=O)[C@@H](CC(C)C)NC(=O)[C@H](CCCN)NC(=O)[C@H](Cc3ccc(OCC(=O)O)cc3)NC(=O)[C@H](Cc3ccc(-c4ccccc4)cc3)NC(=O)[C@H](Cc3ccc(OCC(=O)O)cc3)NC2=O)c1` [Compound 3743] ({CH2CO}-V[Phe(4-COOH)]D[Phe(3-Me)]Y(Carboxymethyl)[Bip]Y(Carboxymethyl)[Orn][dL][Dab][Cha][Val(3-OH)]SC[Dab][AEEA][Aun]-OH; thioether N-14), for which the half-inhibitory concentration (IC50) turned out to be 4.8 nM.
For the compound `Cc1cccc(C[C@@H]2NC(=O)[C@H](CC(=O)O)NC(=O)[C@H](Cc3ccc(OCC(=O)O)cc3)NC(=O)[C@H](CN)NC(=O)CSC[C@@H](C(=O)N[C@@H](C)C(=O)N[C@@H](CCC(=O)O)C(=O)NCCOCCOCC(=O)N[C@@H](CC(=O)NCCOCCOCC(=O)NCCCCCCCCCCC(=O)O)C(=O)O)NC(=O)[C@H]([C@@H](C)O)NC(=O)[C@H](C(C)C)NC(=O)[C@H](CC3CCCCC3)NC(=O)[C@H](CCN)NC(=O)[C@@H](CC(C)C)NC(=O)[C@H](CCCN)NC(=O)[C@H](CCCNC(N)=O)NC(=O)[C@H](Cc3ccc(-c4ccccc4)cc3)NC(=O)[C@H](C(C)C)NC2=O)c1` [Compound 1022] ({CH2CO}-[Dap]Y(Carboxymethyl)D[Phe(3-Me)]V[Bip][Cit][Orn][dL][Dab][Cha]VTCAE[AEEA][βAsp][AEEA][Aun]-OH; thioether N-14), the IC50 worked out at 5.7 nM.
With `Cc1cccc(C[C@@H]2NC(=O)[C@H](CC(=O)O)NC(=O)[C@H](Cc3ccc(C(=O)O)cc3)NC(=O)[C@H](Cc3ccncc3)NC(=O)CSC[C@@H](C(=O)N[C@@H](CCN)C(=O)NCCOCCOCC(=O)NCCOCCOCC(=O)NCCCCCCCCCCC(=O)O)NC(=O)[C@H](CCC(=O)O)NC(=O)[C@H](C(C)C)NC(=O)[C@H](CC3CCCCC3)NC(=O)[C@H](CCN)NC(=O)[C@@H](CC(C)C)NC(=O)[C@H](CCCN)NC(=O)[C@H](Cc3ccc(C(=O)O)cc3)NC(=O)[C@H](Cc3ccc(-c4ccccc4)cc3)NC(=O)[C@H](Cc3ccc(C(=O)O)cc3)NC2=O)c1` [Compound 3765] ({CH2CO}-[4Pal][Phe(4-COOH)]D[Phe(3-Me)][Phe(4-COOH)][Bip][Phe(4-COOH)][Orn][dL][Dab][Cha]VEC[Dab][AEEA][AEEA][Aun]-OH; thioether N-14), the half-inhibitory concentration (IC50) is 344 nM.
Take `Cc1cccc(C[C@@H]2NC(=O)C(CC(=O)O)NC(=O)[C@H](Cc3ccc(OCC(=O)O)cc3)NC(=O)[C@H](CN)NC(=O)CSC[C@@H](C(=O)N[C@@H](CN)C(=O)NCCCCCCCCCCC(=O)O)NC(=O)[C@H]([C@@H](C)O)NC(=O)[C@H](C(C)C)NC(=O)[C@H](CC3CCCCC3)NC(=O)[C@H](CCN)NC(=O)[C@@H](CC(C)C)NC(=O)[C@H](CCCN)NC(=O)[C@H](CCCNC(N)=O)NC(=O)C(Cc3ccc(-c4ccccc4)cc3)NC(=O)[C@H](C(C)C)NC2=O)c1` (stereo partly drawn) [Compound 1181] ({CH2CO}-[Dap]Y(Carboxymethyl)[ξD][Phe(3-Me)]V[ξBip][Cit][Orn][dL][Dab][Cha]VTC[Dap][Aun]-OH; thioether N-14): the IC50 is 11.7 nM.
With `Cc1cccc(C[C@@H]2NC(=O)[C@H](CC(=O)O)NC(=O)[C@H](Cc3ccc(OCC(=O)O)cc3)NC(=O)[C@H](CCCNC(=N)N)NC(=O)CSC[C@@H](C(=O)N[C@@H](CCN)C(=O)NCCCCCCCCCCC(=O)O)NC(=O)[C@H]([C@@H](C)O)NC(=O)[C@H](C(C)C)NC(=O)[C@H](CC3CCCCC3)NC(=O)[C@H](CCN)NC(=O)[C@@H](CC(C)C)NC(=O)[C@H](CCCN)NC(=O)[C@H](CCC(N)=O)NC(=O)[C@H](Cc3ccc(-c4ccccc4)cc3)NC(=O)[C@H](Cc3ccc(OCC(=O)O)cc3)NC2=O)c1` [Compound 2854] ({CH2CO}-RY(Carboxymethyl)D[Phe(3-Me)]Y(Carboxymethyl)[Bip]Q[Orn][dL][Dab][Cha]VTC[Dab][Aun]-OH; thioether N-14) the figure was 16.8 nM; with `Cc1cccc(C[C@@H]2NC(=O)[C@H](CC(=O)O)NC(=O)[C@H](Cc3ccc(OCC(=O)O)cc3)NC(=O)[C@H](Cc3ccncc3)NC(=O)CSC[C@@H](C(=O)N[C@@H](CCN)C(=O)NCCOCCOCC(=O)NCCOCCOCC(=O)NCCCCCCCCCCCCC(=O)O)NC(=O)[C@H](CCC(=O)O)NC(=O)[C@H](C(C)C)NC(=O)[C@H](CC3CCCCC3)NC(=O)[C@H](CCN)NC(=O)[C@@H](CC(C)C)NC(=O)[C@H](CCCN)NC(=O)[C@H](Cc3ccc(C(=O)O)cc3)NC(=O)[C@H](Cc3ccc(-c4ccccc4)cc3)NC(=O)[C@H](Cc3ccc(C(=O)O)cc3)NC2=O)c1` [Compound 3754] ({CH2CO}-[4Pal]Y(Carboxymethyl)D[Phe(3-Me)][Phe(4-COOH)][Bip][Phe(4-COOH)][Orn][dL][Dab][Cha]VEC[Dab][AEEA][AEEA]-{NH(CH2)12COOH}; thioether N-14), 250 nM; with `Cc1cccc(C[C@@H]2NC(=O)[C@H](CC(=O)O)NC(=O)[C@H](Cc3ccc(OCC(=O)O)cc3)NC(=O)[C@H](CN)NC(=O)CSC[C@@H](C(=O)N[C@@H](CCN)C(=O)NCCCCCCCCCCC(=O)O)NC(=O)[C@H](CCCN)NC(=O)[C@H](C(C)C)NC(=O)[C@H](CC3CCCCC3)NC(=O)[C@H](CCN)NC(=O)[C@@H](CC(C)C)NC(=O)[C@H](CCCN)NC(=O)[C@H](Cc3ccc(OCC(=O)O)cc3)NC(=O)[C@H](Cc3ccc(-c4ccccc4)cc3)NC(=O)[C@H](C(C)C)NC2=O)c1` [Compound 2842] ({CH2CO}-[Dap]Y(Carboxymethyl)D[Phe(3-Me)]V[Bip]Y(Carboxymethyl)[Orn][dL][Dab][Cha]V[Orn]C[Dab][Aun]-OH; thioether N-14), 11.1 nM.
For `CC(C)C[C@H]1NC(=O)[C@H](CCCN)NC(=O)[C@H](Cc2ccc(O)cc2)NC(=O)[C@H](Cc2ccc(-c3ccccc3)cc2)NC(=O)[C@H](Cc2ccc(OCC(=O)O)cc2)NC(=O)[C@H](Cc2cc(F)c(F)cc2F)NC(=O)[C@H](CC(=O)O)NC(=O)[C@H](Cc2ccc(OCC(=O)O)cc2)NC(=O)[C@H](CN)NC(=O)CSC[C@@H](C(=O)N[C@@H](CCN)C(=O)NCCOCCOCC(=O)NCCCCCCCCCCC(=O)O)NC(=O)[C@H](CCCN)NC(=O)[C@H](C(C)C)NC(=O)[C@H](CC2CCCCC2)NC(=O)[C@H](CCN)NC1=O` [Compound 1224] ({CH2CO}-[Dap]Y(Carboxymethyl)D[X9]Y(Carboxymethyl)[Bip]Y[Orn][dL][Dab][Cha]V[Orn]C[Dab][AEEA][Aun]-OH; thioether N-14), the IC50 stood at 141 nM.
Consider `CC(=O)NCCCC[C@@H]1NC(=O)[C@H](C(C)(C)O)NC(=O)[C@H](CC2CCCCC2)NC(=O)[C@H](CCN)NC(=O)[C@@H](CC(C)C)NC(=O)[C@H](CCCN)NC(=O)[C@H](CCC(N)=O)NC(=O)[C@H](Cc2ccc(-c3ccccc3)cc2)NC(=O)[C@H](Cc2ccc(OCC(=O)O)cc2)NC(=O)[C@H](Cc2cccc(C(F)(F)F)c2)NC(=O)[C@H](CC(=O)O)NC(=O)[C@H](Cc2ccc(OCC(=O)O)cc2)NC(=O)[C@H](Cc2ccc(OCC(=O)O)cc2)NC(=O)CSC[C@@H](C(=O)N[C@@H](CCN)C(=O)NCCCCCCCCCCCCCCC(=O)O)NC1=O` [Compound 3875] ({CH2CO}-Y(Carboxymethyl)Y(Carboxymethyl)D[Phe(3-CF3)]Y(Carboxymethyl)[Bip]Q[Orn][dL][Dab][Cha][Val(3-OH)]K(Ac)C[Dab]-{NH(CH2)14COOH}; thioether N-14), for which the IC50 amounted to 147 nM.
On to `Cc1cccc(C[C@@H]2NC(=O)[C@H](CC(=O)O)NC(=O)[C@H](Cc3ccc(OCC(=O)O)cc3)NC(=O)[C@H](CN)NC(=O)CSC[C@@H](C(=O)NCC(=O)N[C@@H](CCC(=O)O)C(=O)NCCCCCCCCCCC(=O)O)NC(=O)[C@H]([C@@H](C)O)NC(=O)[C@H](C(C)C)NC(=O)[C@H](CC3CCCCC3)NC(=O)[C@H](CCN)NC(=O)[C@@H](CC(C)C)NC(=O)[C@H](CCCN)NC(=O)[C@H](CCCNC(N)=O)NC(=O)[C@H](Cc3ccc(-c4ccccc4)cc3)NC(=O)[C@H](C(C)C)NC2=O)c1` [Compound 1292] ({CH2CO}-[Dap]Y(Carboxymethyl)D[Phe(3-Me)]V[Bip][Cit][Orn][dL][Dab][Cha]VTCGE[Aun]-OH; thioether N-14), for which the IC50 is 18 nM.
